Reference: PMC11345766, “Computational Design of Pore-Forming Peptides with Potent Antimicrobial and Anticancer Activities” (Journal of Medicinal Chemistry, 2024)

Legend:
[1] = Calcein dye leakage assay from LUVs; format: biochemical; details: P:L 1:100; pH 7.4
Text: To verify the pore-forming mechanism of action of the designed AMPs, we performed a calcein leakage assay. […] These lipid vesicles were used as simple mimics of bacterial membranes.[58] At the lowest tested peptide-to-lipid (P:L) ratio of 1:100 (mol/mol), three mutants (LP18, LP26, and LP40) caused >90% leakage, which was higher than the leakage caused by LP1 (87%). […] At the same concentration, LP23 caused leakage equivalent to that caused by LP1. Other mutants had lower leakage activity. At a higher P:L ratio of 1:50, all the abovementioned mutants caused 100% leakage, equivalent to that caused by LP1.
Pore-forming activity was tested using a dye leakage assay measuring the leakage of self-quenching fluorescent dye calcein from POPC:POPG (1:1 mol/mol) LUVs. DiD was mixed with lipids (1:500 mol/mol), and lipid film was created by evaporating chloroform, followed by 4 h of desiccation. Dried lipid film was dissolved in calcein buffer (35 mM calcein, 25 mM NaH2PO4·H2O and Na2HPO4·7H2O (3:7 mol/mol), 20 mM NaCl, and 1 mM EDTA). After 10 freeze–thaw cycles, the sample was extruded 50 times through a 100 nm pore size polycarbonate membrane filter. Free calcein in solution was removed using a HiTrap Desalting column. The concentrations of LUVs and peptides were adjusted to 0.02 and 0.1 mM, respectively, in PBS (25 mM NaH2PO4·H2O and Na2HPO4·7H2O (3:7 mol/mol), 100 mM NaCl, and 1 mM EDTA). The investigated P/L ratio was from 1:100 to 1:10 (mol/mol). Fluorescence intensity was measured using a HORIBA Scientific Jobin Yvon FluoroLog-3 Modular Spectrofluorometer (USA). Excitation and emission wavelengths were set to 495 and 520 nm, respectively. Triton X-100 10% caused 100% leakage used for normalization.

[2] = test system: A. baumannii (ATCC 19606); assay: Neutropenic murine deep thigh infection model; format: in vivo, mouse; details: single intraperitoneal dose at 10 times the MIC; four days after treatment
Text: Mice were euthanized 4 days postinfection (day 8).
Each experimental group comprised three mice.

[3] = test system: murine macrophages RAW 264.7; details: 24 h
Procedure: Cytotoxicity against human immortalized keratinocytes HaCaT, human alveolar basal epithelial A549 (derived from adenocarcinoma), and murine macrophages RAW 264.7 was tested using MTT [3-(4,5-dimethylthiazol-2-yl)-2,5-diphenyltetrazolium bromide] assay. Cells were cultured in Dulbecco’s modified Eagle’s medium (DMEM) containing 4 mM glutamine for HaCaT, or 2 mM glutamine for A549 and RAW 264.7 cells, supplemented with 10% heat-inactivated fetal bovine serum (FBS) and antibiotics (0.1 mg/mL penicillin and streptomycin). Nonessential amino acids (NEAA) and sodium pyruvate (1 mM) were added for macrophages. Cell lines were grown in 25 and 75 cm^2 flasks at 37 °C in a humidified atmosphere with 5% CO2. Cells were suspended in DMEM, containing glutamine, NEAA, and sodium pyruvate (as described above), supplemented with 2% FBS, plated in 96-well plates at 4 × 10^4 cells/well, and incubated at 37 °C in a 5% CO2 atmosphere. After overnight incubation, the medium was replaced with fresh DMEM supplemented with peptides at different concentrations: 2, 4, 8, 16, 32, 64, and 128 μM. Negative controls were cells without peptides. After 24 h of peptide treatment at 37 °C in a 5% CO2 atmosphere, medium was replaced with Hank’s buffer (136 mM NaCl, 0.34 mM Na2HPO4, 0.44 mM KH2PO4, 5.4 mM KCl, 4.1 mM NaHCO3, supplemented with 5.5 mM D-glucose) containing 0.5 mg/mL MTT. Mitochondrial dehydrogenases converted soluble yellow dye MTT to insoluble purple formazan. After 4 h of incubation, acidified isopropanol was added to dissolve formazan crystals and measured for OD570 using Tecan microplate reader Infinite M200 (Salzburg, Austria).

E. faecium (ATCC 700221) = details: resistant to vancomycin
Text: (§2) The effect of net charge was further investigated against six reference strains of ESKAPEE pathogens (Figure 3b).

[4] = test system: A. baumannii (ATCC 19606); details: clinically relevant strain
Text: as §2

[5] = single intraperitoneal dose at 10 times the MIC
Procedure: Neutropenic mice were infected intramuscularly (in the right thigh) with 10^6 cells per mL of Gram-negative A. baumannii (ATCC 19606).
(a) Schematic of the deep thigh infection model in which bacteria are injected intramuscularly at day 4 and peptides are administered intraperitoneally also at day 4 to assess their anti-infective activity. Mice were euthanized 4 days postinfection (day 8). Each group consisted of six mice (n = 6), and the bacterial loads used to infect the mice derived from three different inocula. […] Polymyxin B (0.006 mg/kg) and levofloxacin (0.014 mg/kg) were used as the reference antibiotics. Statistical significance was done using one-way ANOVA followed by Dunnett’s test. Violin plots represent the median, upper quartile, and lower quartile. (c) Mouse weight was monitored to exclude possible toxic effects of the peptides.
Six-week-old female CD-1 mice (obtained from Charles River; stock number 18679700-022) underwent neutropenia induction via two intraperitoneal doses of cyclophosphamide (150 mg kg^–^1) administered with a 72 h interval. One day later, the mice received an intramuscular injection containing A. baumannii ATCC 19606 (10^6 CFU mL^–1) in the right thigh. Bacteria were cultured in LB broth, washed twice with PBS (pH 7.4), and resuspended to the desired concentration. […] Polymyxin B (0.006 mg/kg) and levofloxacin (0.014 mg/kg) were used as the reference antibiotics. Prior to each injection, mice were anesthetized with isoflurane and their respiratory rate and pedal reflexes were monitored. Subsequently, we observed the infection establishment and euthanized the mice. The infected area was excised 4 days postinfection (i.e., 8 days after the beginning of the experiment), homogenized using a bead beater for 20 min (25 Hz), and 10-fold serially diluted for CFU quantification on MacConkey agar plates. Each experimental group comprised three mice. All experiments were conducted blindly, and no animals were excluded from the analysis. Statistical significance was assessed using one-way ANOVA followed by Dunnett’s test on log10-transformed data to mitigate outlier effects; p values are reported for each group, with all groups compared to the untreated control group.

E. coli (TOP10) = assay: Broth microdilution antimicrobial susceptibility assay; format: cell-based, Escherichia coli; details: 24 h, MHB
In short: (§1)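 Bacteria were grown on MHA for 24 h, subcultured in MHB for 6 h at 37 °C and diluted to 10^6 CFU/mL. Compounds were serially diluted from 50 to 0.1 μM, inoculated and incubated for 24 h at 37 °C. MIC was the lowest concentration with no visible turbidity.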

A. baumannii (Z13) = details: Z13, 18 h
E. coli AIC221 = details: Figure 3c
Text: as §2

[6] = test system: cytoplasmic membranes of ESKAPEE pathogens; assay: Cytoplasmic membrane depolarization assay, DiSC3-(5); format: cell-based; details: both Gram-negative and Gram-positive bacteria; peptides at their MICs
Procedure: First, we investigated the ability of the peptides to depolarize the cytoplasmic membranes of ESKAPEE pathogens. […] Bacteria were incubated with 3,3′-dipropylthiadicarbocyanine iodide [DiSC3-(5)] dye, and the dye fluorescence was measured after peptide treatment. DiSC3-(5) is sensitive to transmembrane potential changes. It accumulates in the cytoplasmic membrane with quenched fluorescence, and when the membrane potential becomes unbalanced, the dye molecules translocate to the outside environment, resulting in increased fluorescence.[56] The three potent AMPs (LP1, LP18, and LP28) and the H-variant (LP40) depolarized the cytoplasmic membrane of both Gram-negative and Gram-positive bacteria at their MICs.
The cytoplasmic membrane depolarization activity of the peptides was determined by measuring the fluorescence of membrane-potential-sensitive dye DiSC3-(5). A. baumannii ATCC 19606, E. coli ATCC 11775, K. pneumoniae ATCC 13883, P. aeruginosa PAO1, S. aureus ATCC 12600, and E. faecium ATCC 700221 were grown to mid log phase (OD600 = 0.5) at 37 °C and then centrifuged (10,000 rpm at 4 °C for 10 min). Cells were washed twice with a buffer containing 20 mM glucose and 5 mM HEPES (pH 7.2) and diluted 1:10 (OD600 = 0.05) in a buffer with 0.1 M KCl, […], and 5 mM HEPES (pH 7.2). Fluorescence was recorded at the excitation and emission wavelengths of 622 and 670 nm, respectively. Bacterial solution (100 μL) was incubated for 15 min with 20 nM of DiSC3-(5) until fluorescence reached a plateau. Changes in transmembrane potential were monitored by observing the difference in fluorescence emission intensity after adding peptides (100 μL at their MICs) for 45 min. Assay was performed in triplicate.

S. carnosus (CCM 4838T) = assay: microbe, parasite or virus in culture; format: cell-based, Staphylococcus carnosus; details: CCM 4838, 24 h; read-out: Antimicrobial activity (MIC) S. carnosus (CCM 4838T)
In short: as §1

Substance: H-KKKKKLKKILKKLFQFINQLDNQLQDIKKKKK-OH [LP28]
- Calcein leakage (%) from LUVs at P:L 1:100 (mol/mol) [1]: 74.0 ± 6.7%
- Reduction of bacterial load [2]: did not significantly reduce the bacterial load
- IC50 [3]: 31 µM
- MIC (E. faecium (ATCC 700221)): 0.8 µM
- MIC [4]: 0.8 µM
- Change in mouse weight [5]: no significant change in mouse weight
- MIC (E. coli (TOP10)): 0.4 µM
- MIC (A. baumannii (Z13)): 1 µM
- MIC (E. coli AIC221): 0.8 µM
- Depolarization of the cytoplasmic membrane [6]: depolarized
- MIC (S. carnosus (CCM 4838T)): 0.4 µM
